According to patent US10844077B2, “Thiazolyl-containing compounds for treating proliferative diseases” (Dana-Farber Cancer Institute, Inc., priority 2014, dated 2020):
“And” between values parts separate entries of the source, which are not always exact repeats. Equal values may be shown once.

How the values were obtained:
Experiment in all cases: KINATIV assay of compounds I-3 and I-9, lysate directly labeled with ATP-biotin probe (no GF)
Format in all cases: cell-based
[1] = molecular target: kinases in BCWM.1 cells (Homo sapiens, UniProt Q16566); conditions: CaMK4; Lys2; 1 μM; no GF
Method: (§1) The cells were harvested and lysed. […] Bound kinases were identified and quantitated by ACTIVX as described in Patricelli et al., Biochemistry, 2007, 46(2): 350-358. The compounds were tested in duplicates against duplicate or quadruplicate control samples.

[2] = molecular target: kinases in BCWM.1 cells (Homo sapiens, UniProt P51451); conditions: BLK; Activation Loop; 1 μM; no GF
Method: as §1

[3] = molecular target: kinases in BCWM.1 cells (Homo sapiens, UniProt O14757); conditions: CHK1; Lys2; 1 μM; no GF
Method: as §1

[4] = molecular target: kinases in BCWM.1 cells (Homo sapiens, UniProt O14965)
Method: as §1

[5] = molecular target: kinases in BCWM.1 cells (Homo sapiens, UniProt Q04759); conditions: PKCt; ATP Loop; 1 μM, 90 min; no GF
Method: as §1

[6] = molecular target: kinases in BCWM.1 cells (Homo sapiens, UniProt Q06187); conditions: BTK; Activation Loop; 1 μM; no GF
Method: as §1

[7] = molecular target: kinases in BCWM.1 cells (Homo sapiens, UniProt Q13188); conditions: MST2; Lys1; 1 μM; no GF
Method: as §1

[8] = molecular target: kinases in BCWM.1 cells (Homo sapiens, UniProt P11802); conditions: CDK4; Lys2; 1 μM; no GF
Method: as §1

[9] = molecular target: kinases in BCWM.1 cells (Homo sapiens, UniProt Q13164); conditions: Erk5; Lys2; 1 μM; no GF
Sequence of kinases in BCWM.1 cells (Homo sapiens, UniProt Q13164) (Q13164 2-816 limits assumed): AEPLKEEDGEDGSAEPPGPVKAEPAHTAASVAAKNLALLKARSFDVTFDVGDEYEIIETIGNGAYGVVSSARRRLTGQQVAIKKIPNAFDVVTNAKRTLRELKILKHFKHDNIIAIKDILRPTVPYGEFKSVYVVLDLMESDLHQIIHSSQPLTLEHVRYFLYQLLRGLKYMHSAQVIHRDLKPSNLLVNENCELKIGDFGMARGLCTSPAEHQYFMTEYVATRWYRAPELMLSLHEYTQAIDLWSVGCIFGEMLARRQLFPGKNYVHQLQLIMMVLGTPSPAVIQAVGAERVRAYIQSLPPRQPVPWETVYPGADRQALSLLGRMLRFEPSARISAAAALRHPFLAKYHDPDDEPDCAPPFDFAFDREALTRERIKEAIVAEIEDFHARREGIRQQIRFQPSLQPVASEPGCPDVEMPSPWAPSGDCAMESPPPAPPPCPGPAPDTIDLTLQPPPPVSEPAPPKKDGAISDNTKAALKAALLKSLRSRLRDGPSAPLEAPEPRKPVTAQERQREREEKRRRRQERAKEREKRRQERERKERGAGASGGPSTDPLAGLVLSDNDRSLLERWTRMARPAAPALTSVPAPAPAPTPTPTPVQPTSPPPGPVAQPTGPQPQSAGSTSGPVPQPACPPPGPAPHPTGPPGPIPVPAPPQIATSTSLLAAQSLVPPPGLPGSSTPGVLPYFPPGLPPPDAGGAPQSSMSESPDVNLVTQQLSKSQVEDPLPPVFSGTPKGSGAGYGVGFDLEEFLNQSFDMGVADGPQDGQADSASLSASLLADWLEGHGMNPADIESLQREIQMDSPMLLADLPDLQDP
Method: as §1

[10] = molecular target: kinases in BCWM.1 cells (Homo sapiens, UniProt P24941); conditions: CDK2; Lys2; 1 μM; no GF
Method: as §1

[11] = molecular target: kinases in BCWM.1 cells (Homo sapiens, UniProt O75582); conditions: MSK1 domain1; Lys2; 1 μM; no GF
Method: as §1

[12] = molecular target: kinases in BCWM.1 cells (Homo sapiens, UniProt P42685); conditions: FRK; Activation Loop; 1 μM; no GF
Method: as §1

[13] = molecular target: kinases in BCWM.1 cells (Homo sapiens, UniProt Q16659); conditions: Erk3; Lys2; 1 μM; no GF
Method: as §1

[14] = molecular target: kinases in BCWM.1 cells (Homo sapiens, UniProt P31749); conditions: AKT1; ATP Loop; 1 μM; no GF
Method: as §1

[15] = molecular target: kinases in BCWM.1 cells (Homo sapiens, UniProt P07948); conditions: LYN; Lys1; 1 μM; no GF
Method: as §1

[16] = molecular target: kinases in BCWM.1 cells (Homo sapiens, UniProt Q13233); conditions: MAP3K1; Lys2; 1 μM; no GF
Sequence of kinases in BCWM.1 cells (Homo sapiens, UniProt Q13233) (Q13233 2-1512 limits assumed): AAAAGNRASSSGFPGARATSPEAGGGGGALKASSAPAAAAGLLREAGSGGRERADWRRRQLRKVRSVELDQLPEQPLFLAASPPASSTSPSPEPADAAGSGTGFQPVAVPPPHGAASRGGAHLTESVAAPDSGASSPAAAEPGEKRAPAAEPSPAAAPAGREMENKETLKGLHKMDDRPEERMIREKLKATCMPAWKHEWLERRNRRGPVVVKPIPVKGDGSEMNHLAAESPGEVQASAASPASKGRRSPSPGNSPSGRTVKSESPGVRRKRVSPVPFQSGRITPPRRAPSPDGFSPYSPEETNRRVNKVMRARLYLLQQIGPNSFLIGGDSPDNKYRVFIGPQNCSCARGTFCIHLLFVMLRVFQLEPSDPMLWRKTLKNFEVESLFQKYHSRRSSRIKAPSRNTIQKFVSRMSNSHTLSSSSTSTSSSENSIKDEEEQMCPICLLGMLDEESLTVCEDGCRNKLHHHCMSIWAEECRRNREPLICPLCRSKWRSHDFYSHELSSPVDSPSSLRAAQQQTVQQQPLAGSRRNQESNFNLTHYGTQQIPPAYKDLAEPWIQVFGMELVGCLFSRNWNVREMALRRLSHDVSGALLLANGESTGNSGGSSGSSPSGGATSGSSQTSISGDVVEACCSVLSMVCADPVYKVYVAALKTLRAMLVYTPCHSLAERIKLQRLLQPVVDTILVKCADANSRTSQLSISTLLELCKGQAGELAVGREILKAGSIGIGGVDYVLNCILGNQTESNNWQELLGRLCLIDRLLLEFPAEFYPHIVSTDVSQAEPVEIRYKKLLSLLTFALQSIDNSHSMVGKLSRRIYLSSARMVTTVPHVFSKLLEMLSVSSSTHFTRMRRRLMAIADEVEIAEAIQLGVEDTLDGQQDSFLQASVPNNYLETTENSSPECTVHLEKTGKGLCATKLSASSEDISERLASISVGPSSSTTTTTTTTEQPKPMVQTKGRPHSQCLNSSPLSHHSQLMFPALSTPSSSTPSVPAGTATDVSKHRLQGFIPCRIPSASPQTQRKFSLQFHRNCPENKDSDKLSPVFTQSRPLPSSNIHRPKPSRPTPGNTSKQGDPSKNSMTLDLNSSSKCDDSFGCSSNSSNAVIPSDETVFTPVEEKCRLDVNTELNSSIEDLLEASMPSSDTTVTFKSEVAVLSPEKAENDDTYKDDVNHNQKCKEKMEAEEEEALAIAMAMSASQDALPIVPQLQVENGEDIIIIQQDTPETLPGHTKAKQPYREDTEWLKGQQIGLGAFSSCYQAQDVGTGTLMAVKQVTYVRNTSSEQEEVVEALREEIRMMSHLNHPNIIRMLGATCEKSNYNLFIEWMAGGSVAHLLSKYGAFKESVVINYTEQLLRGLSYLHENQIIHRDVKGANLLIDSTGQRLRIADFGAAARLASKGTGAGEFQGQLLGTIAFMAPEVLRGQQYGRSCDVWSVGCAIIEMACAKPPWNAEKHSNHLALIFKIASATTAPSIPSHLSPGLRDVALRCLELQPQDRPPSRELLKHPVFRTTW
Method: as §1

[17] = molecular target: kinases in BCWM.1 cells (Homo sapiens, UniProt P09769); conditions: FGR; Activation Loop; 1 μM; no GF
Method: as §1

[18] = molecular target: kinases in BCWM.1 cells (Homo sapiens, UniProt P00533); conditions: EGFR; Lys1; 1 μM; no GF
Sequence of kinases in BCWM.1 cells (Homo sapiens, UniProt P00533) (P00533 25-1210 limits assumed): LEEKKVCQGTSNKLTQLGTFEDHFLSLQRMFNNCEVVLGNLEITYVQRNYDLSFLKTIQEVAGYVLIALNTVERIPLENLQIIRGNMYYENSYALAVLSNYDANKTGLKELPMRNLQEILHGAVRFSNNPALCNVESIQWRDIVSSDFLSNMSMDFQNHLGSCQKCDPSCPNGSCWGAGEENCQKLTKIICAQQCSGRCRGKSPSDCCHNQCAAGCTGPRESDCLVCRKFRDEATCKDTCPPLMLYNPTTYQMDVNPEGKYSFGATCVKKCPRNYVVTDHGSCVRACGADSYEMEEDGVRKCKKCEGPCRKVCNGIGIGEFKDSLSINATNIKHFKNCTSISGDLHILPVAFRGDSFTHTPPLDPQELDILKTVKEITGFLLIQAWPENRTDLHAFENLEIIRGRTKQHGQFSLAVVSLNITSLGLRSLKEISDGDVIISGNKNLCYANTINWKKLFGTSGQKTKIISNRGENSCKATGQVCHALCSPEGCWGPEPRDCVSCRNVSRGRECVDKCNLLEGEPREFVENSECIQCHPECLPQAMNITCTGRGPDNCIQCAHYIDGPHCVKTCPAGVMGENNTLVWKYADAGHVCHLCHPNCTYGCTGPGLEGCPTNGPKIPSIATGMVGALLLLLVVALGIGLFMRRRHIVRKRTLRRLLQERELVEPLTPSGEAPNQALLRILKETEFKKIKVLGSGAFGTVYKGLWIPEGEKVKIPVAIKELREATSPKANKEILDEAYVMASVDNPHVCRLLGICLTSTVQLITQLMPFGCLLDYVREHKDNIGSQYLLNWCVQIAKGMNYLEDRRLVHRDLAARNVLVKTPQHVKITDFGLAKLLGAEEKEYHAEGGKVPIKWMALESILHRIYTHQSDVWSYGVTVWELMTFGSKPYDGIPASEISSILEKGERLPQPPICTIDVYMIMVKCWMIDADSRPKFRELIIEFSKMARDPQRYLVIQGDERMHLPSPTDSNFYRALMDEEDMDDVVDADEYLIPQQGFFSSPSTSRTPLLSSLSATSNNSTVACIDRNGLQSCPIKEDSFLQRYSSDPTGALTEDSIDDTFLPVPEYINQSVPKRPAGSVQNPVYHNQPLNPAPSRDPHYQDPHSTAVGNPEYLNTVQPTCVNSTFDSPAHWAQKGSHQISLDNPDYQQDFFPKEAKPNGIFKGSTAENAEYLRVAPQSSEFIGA
Method: as §1

[19] = molecular target: kinases in BCWM.1 cells (Homo sapiens, UniProt P54762); conditions: EphB1; Activation Loop; 1 μM; no GF
Sequence of kinases in BCWM.1 cells (Homo sapiens, UniProt P54762) (P54762 18-984 limits assumed): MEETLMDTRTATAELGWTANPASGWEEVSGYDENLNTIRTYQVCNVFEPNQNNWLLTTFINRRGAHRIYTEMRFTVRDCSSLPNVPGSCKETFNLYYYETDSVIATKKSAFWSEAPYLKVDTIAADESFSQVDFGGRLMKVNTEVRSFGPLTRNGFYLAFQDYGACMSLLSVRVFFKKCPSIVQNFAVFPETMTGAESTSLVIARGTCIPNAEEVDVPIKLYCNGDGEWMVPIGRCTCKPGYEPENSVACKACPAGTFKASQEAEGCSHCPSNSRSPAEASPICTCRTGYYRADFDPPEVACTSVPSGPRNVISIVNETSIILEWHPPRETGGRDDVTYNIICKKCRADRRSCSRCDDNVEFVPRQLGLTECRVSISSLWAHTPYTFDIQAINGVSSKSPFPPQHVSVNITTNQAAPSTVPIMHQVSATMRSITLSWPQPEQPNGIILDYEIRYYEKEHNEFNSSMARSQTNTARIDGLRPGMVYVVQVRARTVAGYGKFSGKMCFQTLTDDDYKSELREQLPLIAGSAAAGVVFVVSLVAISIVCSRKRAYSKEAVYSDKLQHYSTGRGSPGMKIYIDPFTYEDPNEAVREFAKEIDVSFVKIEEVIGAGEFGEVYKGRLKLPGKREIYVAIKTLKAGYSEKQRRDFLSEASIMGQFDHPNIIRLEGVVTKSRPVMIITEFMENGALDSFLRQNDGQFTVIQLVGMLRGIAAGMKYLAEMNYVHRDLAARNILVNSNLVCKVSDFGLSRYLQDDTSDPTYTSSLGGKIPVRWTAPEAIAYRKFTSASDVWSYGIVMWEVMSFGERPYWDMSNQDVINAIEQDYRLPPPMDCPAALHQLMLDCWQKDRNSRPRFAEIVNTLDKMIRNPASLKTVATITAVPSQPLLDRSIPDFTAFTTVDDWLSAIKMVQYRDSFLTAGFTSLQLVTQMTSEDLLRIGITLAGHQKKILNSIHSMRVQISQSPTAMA
Method: as §1

[20] = molecular target: kinases in BCWM.1 cells (Homo sapiens, UniProt Q96GX5); conditions: MASTL, 1 μM, no GF
Method: as §1

[21] = molecular target: kinases in BCWM.1 cells (Homo sapiens, UniProt O14936); conditions: CASK; Lys1; 1 μM; no GF
Method: as §1

[22] = molecular target: kinases in BCWM.1 cells (Homo sapiens, UniProt P50613); conditions: CDK7; Lys2; 1 μM; no GF
Sequence of kinases in BCWM.1 cells (Homo sapiens, UniProt P50613) (P50613 2-346 limits assumed): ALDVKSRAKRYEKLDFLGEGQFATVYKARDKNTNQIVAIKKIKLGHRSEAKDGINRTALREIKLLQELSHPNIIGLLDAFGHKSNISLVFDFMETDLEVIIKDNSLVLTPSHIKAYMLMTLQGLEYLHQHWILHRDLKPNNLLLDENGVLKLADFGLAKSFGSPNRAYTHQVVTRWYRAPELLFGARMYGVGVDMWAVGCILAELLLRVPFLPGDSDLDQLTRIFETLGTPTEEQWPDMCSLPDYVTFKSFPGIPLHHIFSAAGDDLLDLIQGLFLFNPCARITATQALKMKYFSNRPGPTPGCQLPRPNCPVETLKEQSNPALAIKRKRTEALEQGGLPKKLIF
Method: as §1

[23] = molecular target: kinases in BCWM.1 cells (Homo sapiens, UniProt Q02156); conditions: PKCe; Lys2; 1 μM, 90 min; no GF
Method: as §1

[24] = molecular target: kinases in BCWM.1 cells (Homo sapiens, UniProt Q9Y2K2); conditions: QSK; Lys2; 1 μM, 90 min; no GF
Method: as §1

[25] = molecular target: kinases in BCWM.1 cells (Homo sapiens, UniProt Q8TCG2); conditions: PI4K2B; ATP; 1 μM, 90 min; no GF
Method: as §1

[26] = molecular target: kinases in BCWM.1 cells (Homo sapiens, UniProt Q9UK32); conditions: RSK4 domain1; Lys2; 1 μM, 90 min; no GF
Method: as §1

[27] = molecular target: kinases in BCWM.1 cells (Homo sapiens, UniProt P17612); conditions: PKACa; Lys2; 1 μM, 90 min; no GF
Method: as §1

[28] = molecular target: kinases in BCWM.1 cells (Homo sapiens, UniProt O00506); conditions: YSK1; Lys1; 1 μM, 90 min; no GF
Method: as §1

[29] = molecular target: kinases in BCWM.1 cells (Homo sapiens, UniProt Q16513); conditions: PKN2; Lys2; 1 μM, 90 min; no GF
Method: as §1

With `C=CC(=O)N1CC[C@H](Nc2nccc(Nc3ncc(C(=O)Nc4c(C)cccc4C)s3)n2)C1` [Example I-3] the “% change of MS signal compared to control sample” value (from here on “% change of MS signal”) [1] was 6.8% and −0.1%, the “% change of MS signal” value [2] was over 96% and the “% change of MS signal” value [3] was 9.7% and 5.6%. For the same compound, the “% change of MS signal” value [4] was 12.7%, the “% change of MS signal” value [5] was −5.2% and the “% change of MS signal” value [6] was 94.7% and 95.2%. For the same compound, the “% change of MS signal” value [7] was −12.1% and −18%, the “% change of MS signal” value [8] was 10.3% and 4.8% and the “% change of MS signal” value [9] was 3% and 8.3%. For the same compound, the “% change of MS signal” value [10] was 3.6% and 1.2%, the “% change of MS signal” value [11] was −2.8% and −9% and the “% change of MS signal” value [12] was 92.4% and 95.8%. For the same compound, the “% change of MS signal” value [13] was 23.2% and 23.8%, the “% change of MS signal” value [14] was −20.4% and −21.9% and the “% change of MS signal” value [15] was over 98%. For the same compound, the “% change of MS signal” value [16] was 22.5% and 18.8%, the “% change of MS signal” value [17] was 95.7% and 95.4% and the “% change of MS signal” value [18] was 20% and 17%. The “% change of MS signal” value [19] was 92.9% and 95.7%, the “% change of MS signal” value ([20]; ATP Loop) was 5.3% and 6% and the “% change of MS signal” value ([20]; Lys1) was 16.4% and 9.8%. The “% change of MS signal” value [21] was −1% and 0.5% and the “% change of MS signal” value [22] was 8.9% and 5.1%.
For `CCC(=O)N1CC[C@H](Nc2nccc(Nc3ncc(C(=O)Nc4c(C)cccc4C)s3)n2)C1` [Example I-9], the “% change of MS signal” value [23] was −38.2%, the “% change of MS signal” value [24] was −1.8% and the “% change of MS signal” value [25] was 2.6%. The “% change of MS signal” value [26] was 9.1%, the “% change of MS signal” value [27] was −9.8% and the “% change of MS signal” value [28] was −11.5%. The “% change of MS signal” value [29] was −4.5%.
